Data set [1] has as its system MV4-11. Put plainly: Antiproliferative activity against human MV4-11 cells harboring FLT3 ITD mutant after 72 hrs by MTS assay. Format: functional, cell-based. The following applies: MV4-11, 72 h. A general note: Formazan colour is commonly taken as a measure of viable cells.
Data set [2] in a line: Toxicity in Harlan nude mouse xenografted with human MV4-11 cells administered ig qd for 20 days. As to conditions: in vivo, po.
The test system of data set [3] is MV4-11. Put plainly: Antitumor activity against human MV4-11 cells xenografted in Harlan nude mouse assessed as tumor growth inhibition at 10 mg/kg, ig qd for 20 days relative to control. Format: functional. As to conditions: MV4-11, po, 480 h, read-out: TGI.
The nature of data set [4]: Inhibition of human FLT3 ITD mutant.
In data set [5] the test system is MV4-11. Put plainly: Antitumor activity against human MV4-11 cells xenografted in Harlan nude mouse assessed as tumor growth inhibition administered ig qd for 20 days. Type of data set: functional. As to conditions: MV4-11, po, 480 h, read-out: MED. On the technique in general: In xenograft studies the graft and the host belong to different species.
For data set [6], the system named is MV4-11. Put plainly: Antitumor activity against human MV4-11 cells xenografted in Harlan nude mouse assessed as tumor growth inhibition administered orally measured after 1 week. Format: functional, cell-based.

Activity calls are given as the source filed them. No cut-off for these calls is given here. Bounds are passed on as bounds.

For `CCCNCCC(=O)Nc1c(C)[nH]c(/C=C2\C(=O)Nc3ccc(F)cc32)c1C`, the half-maximal inhibitory concentration (IC50) (commonly the concentration needed to halve the response being measured) in data set [1] was determined as 39.4 nM. Still for that read-out and setting: in the case of `Cc1[nH]c(/C=C2\C(=O)Nc3ccc(F)cc32)c(C)c1NC(=O)CCNC(C)(C)C` it was 30.3 nM; in that of `Cc1[nH]c(/C=C2\C(=O)Nc3ccc(F)cc32)c(C)c1NC(=O)CN1CCCCC1`, more than 200 nM; in that of `CCNCCC(=O)Nc1c(C)[nH]c(/C=C2\C(=O)Nc3ccc(F)cc32)c1C`, 25.7 nM.

`CCN(CC)CCNC(=O)c1c(C)[nH]c(/C=C2\C(=O)Nc3ccc(F)cc32)c1C` [SUNITINIB] gave an MTD at 480 h in data set [2] of 80 mg/kg/day. In addition, the inhibition in vivo at 10 mg/kg in data set [3] turned out to be 81%. The concentration for half-maximal inhibition (IC50) worked out at 1.4 nM in data set [4] and 38.5 nM in data set [1]. In addition, the minimal effective dose in data set [5] is 10 mg/kg/day.

Turning to `Cc1[nH]c(/C=C2\C(=O)Nc3ccc(F)cc32)c(C)c1NC(=O)C1CCCCN1` (stereo not drawn), in data set [1], the IC50 was 35.6 nM. This counts as double-digit nanomolar. Same read-out and setting: in the case of `Cc1[nH]c(/C=C2\C(=O)Nc3ccc(F)cc32)c(C)c1NC(=O)CNC(C)(C)C` it was 158 nM; in that of `Cc1[nH]c(/C=C2\C(=O)Nc3ccc(F)cc32)c(C)c1NC(=O)C1CCCNC1` (stereo not drawn), 24.1 nM; in that of `Cc1[nH]c(/C=C2\C(=O)Nc3ccc(F)cc32)c(C)c1NC(=O)CN1CCCC1`, 74.4 nM. `Cc1[nH]c(/C=C2\C(=O)Nc3ccc(F)cc32)c(C)c1NC(=O)CCN1CCCC1` came in with a 50% inhibitory concentration (IC50) in data set [1] of 20 nM. Against the preceding molecule, the IC50 is about 3.7-fold lower. Still for that read-out and setting: in the case of `Cc1[nH]c(/C=C2\C(=O)Nc3ccc(F)cc32)c(C)c1NC(=O)CCN1CCOCC1` it was 60.7 nM. On the same count and under the same terms, under `Cc1[nH]c(/C=C2\C(=O)Nc3ccc(F)cc32)c(C)c1NC(=O)CN1CCOCC1` stands 66.1 nM. On the same count and under the same terms, in the case of `Cc1[nH]c(/C=C2\C(=O)Nc3ccc(F)cc32)c(C)c1NC(=O)CCN1CCCCC1` it was 33.7 nM; in that of `Cc1[nH]c(/C=C2\C(=O)Nc3ccc(F)cc32)c(C)c1NC(=O)CN1CCN(C)CC1`, 38.5 nM. `CCN(CC)CCC(=O)Nc1c(C)[nH]c(/C=C2\C(=O)Nc3ccc(F)cc32)c1C` came in with an IC50 in data set [1] of 36.5 nM. Same read-out and setting: in the case of `CCCCNCCC(=O)Nc1c(C)[nH]c(/C=C2\C(=O)Nc3ccc(F)cc32)c1C` it was 73.4 nM; in that of `Cc1[nH]c(/C=C2\C(=O)Nc3ccc(F)cc32)c(C)c1NC(=O)CCN1CCN(C)CC1`, 45.3 nM; in that of `Cc1[nH]c(/C=C2\C(=O)Nc3ccc(F)cc32)c(C)c1NC(=O)CN1CCNCC1`, 17.1 nM. On the same count and under the same terms, in the case of `Cc1[nH]c(/C=C2\C(=O)Nc3ccc(F)cc32)c(C)c1NC(=O)CN(C)C` it was 47.5 nM; in that of `CCNCC(=O)Nc1c(C)[nH]c(/C=C2\C(=O)Nc3ccc(F)cc32)c1C`, 43.8 nM.

In data set [1], `CCCCNCC(=O)Nc1c(C)[nH]c(/C=C2\C(=O)Nc3ccc(F)cc32)c1C` showed an IC50 of more than 200 nM. For `CCCN(CCC)CCC(=O)Nc1c(C)[nH]c(/C=C2\C(=O)Nc3ccc(F)cc32)c1C`, the midpoint of inhibition in data set [1], the IC50, lay at 142 nM. Same read-out and setting: in the case of `Cc1[nH]c(/C=C2\C(=O)Nc3ccc(F)cc32)c(C)c1NC(=O)CCN(C)C` it was 27.1 nM; in that of `CCN(CC)CC(=O)Nc1c(C)[nH]c(/C=C2\C(=O)Nc3ccc(F)cc32)c1C`, more than 200 nM. Still for that read-out and setting: under `Cc1[nH]c(/C=C2\C(=O)Nc3ccc(F)cc32)c(C)c1NC(=O)CCNC1CCCC1` stands 55 nM.

As to `Cc1[nH]c(/C=C2\C(=O)Nc3ccc(F)cc32)c(C)c1NC(=O)CNC1CCCCC1`, the IC50 in data set [1] is more than 200 nM. Molecule `CCCN(CCC)CC(=O)Nc1c(C)[nH]c(/C=C2\C(=O)Nc3ccc(F)cc32)c1C` had an IC50 in data set [1] of more than 200 nM.

`Cc1[nH]c(/C=C2\C(=O)Nc3ccc(F)cc32)c(C)c1NC(=O)C1CCNCC1`: in data set [6], the TGI entry is “inactive”. In addition, in data set [1], the IC50 is 14.7 nM. In data set [1], `Cc1[nH]c(/C=C2\C(=O)Nc3ccc(F)cc32)c(C)c1NC(=O)CCN1CCNCC1` registered an IC50 of 39.2 nM. On the same count and under the same terms, under `Cc1[nH]c(/C=C2\C(=O)Nc3ccc(F)cc32)c(C)c1NC(=O)CCNC1CCCCC1` stands 119 nM; under `Cc1[nH]c(/C=C2\C(=O)Nc3ccc(F)cc32)c(C)c1NC(=O)[C@@H]1CCCN1`, 41.4 nM; under `Cc1[nH]c(/C=C2\C(=O)Nc3ccc(F)cc32)c(C)c1NC(=O)CNC1CCCC1`, 89.9 nM. Same read-out and setting: in the case of `CCCNCC(=O)Nc1c(C)[nH]c(/C=C2\C(=O)Nc3ccc(F)cc32)c1C` it was 67.8 nM.
